Laboratory results as given in US20220265775A1, “COMPOSITIONS AND METHODS FOR TREATING PULMONARY EDEMA OR LUNG INFLAMMATION” (priority 2019, published 2022).

System: RLE-6TN cells
Assay: RLE-6TN cell survival under hyperoxia and recovery, viable cells counted by trypan blue exclusion
Type: cell-based, rat
Experimental: FIG. 7. […] The cells were cultured in DMEM/F12 with 10% FBS in 21% O2 and 5% CO2 overnight. […] The viable cells are counted immediately after 72-hour hyperoxia exposure. Cell viability is assessed with trypan blue. The amount of viable cells under specific conditions is presented as a percentage of the cell number from hyperoxia alone. Data are mean±s.d. of four independent experiments with *=P<0.05; **=P<0.01.
FIG. 8. […] In both (A) and (B), the number of viable cells under specific conditions is presented as a percentage of the cell number related to hyperoxia alone in the same experiment. Data are mean s.d. of four independent experiments with *=P<0.05; **=P<0.01.
FIG. 10. HO-1 upregulation is required for T3-increased RLE-6TN cell survival in hyperoxia. […] The cells were then collected for Western Blot analysis. (B) The cells were incubated in 21% O2 and 5% CO2 for 72 hours in the present of HO-1 inhibitor Tin Protoporphyrin IX (10^−6M). […] Cell viability is assessed with trypan blue. The number of viable cells under specific conditions is presented as a percentage of the cell number related to hyperoxia alone. Data are mean±s.d. of three independent experiments with *=P<0.05; **=P<0.01.
FIG. 11. PI3K inhibitor wortmannin blocked T3-induced cell survival in hyperoxia. […] Cell viability is assessed with trypan blue. The number of viable cells under specific conditions is presented as a percentage of the cell number related to hyperoxia alone. Data are mean±s.d. of four independent experiments with *=P<0.05; **=P<0.01.
At the end of the hyperoxia exposure period, the viable cells were counted by trypan blue dye exclusion.

Compound	number of viable AT2 cells at 48 hours of recovery (90% oxygen for 24 or 48 hours, compound present only during recovery in 21% O2)	effect on cell survival under hyperoxia (90% oxygen for 72 hours, 10^−6M)	AT2 cell number in room air (21% O2 for 72 hours, Tin Protoporphyrin IX 10^−6M)	effect on T3-caused increase in cell survival in hyperoxia (90% O2 72 hours, T3 10^−6M with Tin Protoporphyrin IX 10^−6M)
N[C@@H](Cc1ccc(Oc2cc(I)c(O)c(I)c2)c(I)c1)C(=O)O [rT3]	no protective effect	no role in cell survival		
C=Cc1c2[n-]c(c1C)/C=c1\[n-]/c(c(C)c1C=C)=C\c1[n-]c(c(CCC(=O)O)c1C)C=c1[n-]/c(c(C)c1CCC(=O)O)=C\2.[Sn+4] [Tin protoporphyrin, Tin Protoporphyrin IX]			no effect on AT2 cell number in room air	blocked the T3-caused increase in cell survival and augmented cell death
